Assay results from PMC11403612, “Preparation and Preclinical Characterization of a Simple Ester for Dual Exogenous Supply of Lactate and Beta-hydroxybutyrate” (Journal of Agricultural and Food Chemistry, 2024).

System: N-L-lactoyl-phenylalanine (Lac-Phe)
Assay: Plasma N-L-lactoyl-phenylalanine after oral LaKe in rats
Assay type: in vivo, Sprague–Dawley rats
Conditions: 4.5 g/kg oral
Experimental: Male Sprague–Dawley rats (300–350g, Taconic, Ry, Denmark) were kept for acclimatization at a constant temperature of 23 °C with a 12 h light-dark cycle and with unlimited access to food and water. All animal handling was in accordance with national guidelines in Denmark and the guidelines from the Directive 2010/63/EU of the European Parliament on the protection of animals used for scientific purposes, and all experiments conformed to Danish Law (Act. No. 1306 of 23/11/2007). The experimental protocol was approved by the Danish Animal Expectorate (2018-15-0201-01475).
The rats were randomly selected to receive either LaKe (n = 8) or placebo (n = 8). […]
Concentrations of non-esterified free fatty acids (FFA) were measured using a NEFA-HR(2) kit (Wako, Chemicals Gmbh, Germany). Absorbance was measured by spectrometry (PHERAstar FS, BMG LABTECH, […]
Quantification of N-L-lactoyl phenylalanine (Lac-Phe) by LC-MS/MS […]
Pure calibrant samples were prepared from an authentic standard compound (N-L-lactoyl phenylalanine), using the plasma sample preparation method at concentrations equivalent to […] in the original sample. The lower limit of quantification for N-L-lactoyl phenylalanine (Lac-Phe) quantification was estimated to 10 nM. […]

CC(O)CCOC(=O)C(C)O (stereo not shown) [LaKe, 3-hydroxybutyl 2-hydroxypropanoate]
change in plasma Lac-Phe: increase
